One block for each compound: values may come before it.
Experiments:
[1] = target: T1, human histamine H1-receptor (Homo sapiens, UniProt P35367); experiment: Radioligand binding, histamine H1-receptor, competitive inhibition of [3H]Pyrilamine; settings: CHO-cells transfected with the human histamine H1-receptor, read-out: H1-antagonist activity (pIC50) (converted)
T1 construct: expressed in transfected cells; host or cells: CHO cells
Protocol: Competitive inhibition of [^3H] […] Incubation was done during 150 min at 22° C.

[2] = test system: Sprague-Dawley rats with closed head injury; experiment: Closed Head Injury (CHI) model, severe head injury; settings: for Effect on ICP / Effect on blood pressure: 0.5 mg/kg/min for 10 min, severe head injury, first 15 minutes, 6 rats; for effect on the lowering of the blood pressure: rat, in vivo
[3] = test system: non-traumatised rats; experiment: ICP and blood pressure in non-traumatized rats; assay type: in vivo, rat; settings: for effects of H2-agonists (ICP, blood pressure): dimaprit 0.5 mg/kg/min for 10 minutes, impromidine increasing doses up to 3.75 mg/kg/hour; for effects of H2-agonists on blood pressure and ICP, high dose: dimaprit 2 mg/kg/min for 10 minutes, impromidine bolus of 0.5 mg/kg
Protocol: For comparison, two commercially available H2-agonists (dimaprit and impromidine) were also tested by infusion into non-traumatized rats, using a dose of 0.5 mg/kg/min for 10 minutes for dimaprit and increasing doses up to 3.75 mg/kg/hour for impromidine.
Rats The effect of Compound 2, Compound 1 and Racemate (comp. 1 and comp. 2) on ICP, MABP and CPP was tested in anaesthetised non-traumatised rats. […] Conclusion

[4] = bolus of 1 mg/kg in 1 min, then infusion of 0.5 mg/kg/min for 44 min

T1 sequence (P35367 whole entry): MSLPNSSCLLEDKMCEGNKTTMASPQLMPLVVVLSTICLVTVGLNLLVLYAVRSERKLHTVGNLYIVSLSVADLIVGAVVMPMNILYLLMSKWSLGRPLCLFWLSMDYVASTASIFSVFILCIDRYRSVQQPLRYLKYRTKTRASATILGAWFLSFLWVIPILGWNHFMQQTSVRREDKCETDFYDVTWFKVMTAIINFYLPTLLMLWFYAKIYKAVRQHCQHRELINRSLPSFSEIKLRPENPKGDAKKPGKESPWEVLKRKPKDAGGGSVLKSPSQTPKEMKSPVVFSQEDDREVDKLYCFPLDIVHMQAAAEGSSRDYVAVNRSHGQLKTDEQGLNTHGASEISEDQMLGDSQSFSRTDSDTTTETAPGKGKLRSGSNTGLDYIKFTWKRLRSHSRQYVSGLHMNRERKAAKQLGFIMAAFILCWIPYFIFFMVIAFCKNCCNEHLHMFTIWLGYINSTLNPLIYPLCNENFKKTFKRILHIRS

IC50 [1]: 200 nM
Compound: Cc1nc2ccccn2c(=O)c1CCN1CCC(C2c3ccccc3CCn3c2nc2ccccc23)CC1Cc1ccccc1 (stereo not drawn) [Compound 81]

IC50 [1]: 631 nM
Compound: Cc1nc2n(C)c3ccccc3n2c(=O)c1CCN1CCC(C2c3ccccc3CCn3c2nc2ccccc23)CC1Cc1ccccc1 (single isomer, unassigned) [Compound 17]
Decision (sequential statistical evaluation) [2, 4]: active
Delta %: average change of the relative ICP from baseline over the treatment period [2, 4]: −8.9%

IC50 [1]: 316 nM
Compound: Cc1nc2n(C)c3ccccc3n2c(=O)c1CCN1CCC(C2c3ccccc3CCn3c2nc2ccccc23)CC1Cc1ccccc1 (stereo not drawn) [Compound 49]

IC50 [1]: 251 nM
Compound: Cc1nc2n(C)c3ccccc3n2c(=O)c1CCN1CCC(C2c3ccccc3CCn3c2nc2ccccc23)CC1Cc1ccccc1 (stereo not drawn) [Compound 55]

IC50 [1]: 398 nM
Compound: Cc1nc2n(C)c3ccccc3n2c(=O)c1CCN1CCC(C2c3ccccc3CCn3c2nc2ccccc23)CC1Cc1ccccc1 (single isomer, unassigned) [Compound 57]

IC50 [1]: 501 nM
Compound: COCCOCn1c2ccccc2n2c(=O)c(CCN3CCC(C4c5ccccc5CCn5c4nc4ccccc45)CC3Cc3ccccc3)c(C)nc12 (stereo not drawn) [Compound 29]

IC50 [1]: 398 nM
Compound: Cc1nc2n(Cc3ccccn3)c3ccccc3n2c(=O)c1CCN1CCC(C2c3ccccc3CCn3c2nc2ccccc23)CC1Cc1ccccc1 (stereo not drawn) [Compound 20]

Compound: OC[C@@H](O)[C@@H](O)[C@H](O)[C@H](O)CO [Mannitol, mannitol, reference compound]
mean reduction of ICP ([2]; i.v. mannitol 3 g over 45 min): about 20%
effect of repeated infusion on ICP ([2]; mannitol i.v. 0.125 g/kg/min, same time windows): lowering of ICP
Decision (sequential statistical evaluation) ([2]; mannitol infusion of 67 mg/kg/min for 45 min, 5 separate tests): active
Delta %: average change of the relative ICP from baseline over the treatment period ([2]; mannitol infusion of 67 mg/kg/min for 45 min, 5 separate tests, listed as Mannitol^1, 67 mg/kg): −21.7%
Delta %: average change of the relative ICP from baseline over the treatment period ([2]; mannitol infusion of 67 mg/kg/min for 45 min, 5 separate tests, listed as Mannitol^2, 67 mg/kg): −22.1%
Delta %: average change of the relative ICP from baseline over the treatment period ([2]; mannitol infusion of 67 mg/kg/min for 45 min, 5 separate tests, listed as Mannitol^3, 67 mg/kg): −13.0%
Delta %: average change of the relative ICP from baseline over the treatment period ([2]; mannitol infusion of 67 mg/kg/min for 45 min, 5 separate tests, listed as Mannitol^4, 67 mg/kg): −19.3%
Delta %: average change of the relative ICP from baseline over the treatment period ([2]; mannitol infusion of 67 mg/kg/min for 45 min, 5 separate tests, listed as Mannitol^5, 67 mg/kg): −19.9%

IC50 [1]: 126 nM
Compound: Cc1nc2sccn2c(=O)c1CCN1CCC(C2(C)c3ccccc3CCn3c2nc2ccccc23)CC1 (stereo not drawn) [Compound 110]

IC50 [1]: 200 nM
Compound: CCOCCn1c2ccccc2n2c(=O)c(CCN3CCC(C4c5ccccc5CCn5c4nc4ccccc45)CC3Cc3ccccc3)c(C)nc12 (stereo not drawn) [Compound 23]

IC50 [1]: 398 nM
Compound: Cc1nc2n(C)c3ccccc3n2c(=O)c1CCN1CCC(C2c3ccccc3CCn3c2nc2ccccc23)CC1Cc1ccccc1 (single isomer, unassigned) [Compound 47]
Decision (sequential statistical evaluation) [2, 4]: active
Delta %: average change of the relative ICP from baseline over the treatment period [2, 4]: −12.0%

Compound: Clc1ccc(Cn2c(CN3CCCC3)nc3ccccc32)cc1 [Clemizole, reference compound]
Effect on ICP [2]: −

IC50 [1]: 794 nM
Compound: Cc1nc2n(C)c3ccccc3n2c(=O)c1CCN1CCC(C2c3ccccc3CCn3c2nc2ccccc23)CC1Cc1ccccc1 (stereo not drawn) [Compound 30]
Decision (sequential statistical evaluation) [2, 4]: active
Delta %: average change of the relative ICP from baseline over the treatment period [2, 4]: −9.3%

IC50 [1]: 316 nM
Compound: Cc1nc2n(C)c3ccccc3n2c(=O)c1CCN1CCC(C2c3ccccc3CCn3c2nc2ccccc23)CC1Cc1ccccc1 (stereo not drawn) [Compound 48]

IC50 [1]: 251 nM
Compound: Cc1nc2n(C)c3ccccc3n2c(=O)c1CCN1CCC(C2c3ccccc3CCn3c2nc2ccccc23)CC1Cc1ccccc1 (stereo not drawn) [Compound 50]

IC50 [1]: 100 nM
Compound: Cc1nc2sccn2c(=O)c1CCN1CCC(C)(C2c3ccccc3CCn3c2nc2ccccc23)CC1 (stereo not drawn) [Compound 104]

Compound: CN(C)CCC(c1ccc(Br)cc1)c1ccccn1 (stereo not drawn) [Brompheniramine, reference compound]
Effect on ICP [2]: −

IC50 [1]: 794 nM
Compound: Cc1nc2ccccn2c(=O)c1CCN1CCC(C2c3ccccc3CCn3c2nc2ccccc23)C(C)C1 (single isomer, unassigned) [Compound 89]

IC50 [1]: 398 nM
Compound: Cc1nc2n(C)c3ccccc3n2c(=O)c1CCN1CCC(C2c3ccccc3CCn3c2nc2ccccc23)CC1Cc1ccccc1 (single isomer, unassigned) [Compound 58]

Compound: CN1CCC[C@@H]1CCO[C@](C)(c1ccccc1)c1ccc(Cl)cc1 [Clemastine, reference compound]
Effect on ICP [2]: −

Compound: CCOC(=O)N1CCC(=C2c3ccc(Cl)cc3CCc3cccnc32)CC1 [Loratidine, reference compound]
Effect on ICP [2]: −

Compound: Cc1nc2sccn2c(=O)c1CCN1CCC(=C(c2ccc(F)cc2)c2ccc(F)cc2)CC1 [Ritanserine, reference compound]
Effect on blood pressure [2]: −

IC50 [1]: 794 nM
Compound: COCCOCCn1c2ccccc2n2c(=O)c(CCN3CCC(C4c5ccccc5CCn5c4nc4ccccc45)CC3Cc3ccccc3)c(C)nc12 (stereo not drawn) [Compound 35]

IC50 [1]: 316 nM
Compound: CCOC(=O)Cn1c2ccccc2n2c(=O)c(CCN3CCC(C4c5ccccc5CCn5c4nc4ccccc45)CC3Cc3ccccc3)c(C)nc12 (stereo not drawn) [Compound 53]

IC50 [1]: 631 nM
Compound: Cc1nc2n(CCOCCO)c3ccccc3n2c(=O)c1CCN1CCC(C2c3ccccc3CCn3c2nc2ccccc23)CC1Cc1ccccc1 (stereo not drawn) [Compound 37]

Compound: CN(C)CCCSC(=N)N [dimaprit]
effects of H2-agonists (ICP, blood pressure) [3]: No effects were observed
effects of H2-agonists on blood pressure and ICP, high dose [3]: blood pressure and ICP were observed to drop, but recovered after the treatment

IC50 [1]: 251 nM
Compound: Cc1nc2sccn2c(=O)c1CCN1CCC(C2c3ccccc3CCn3c2nc2ccccc23)C(C)C1 (stereo not drawn) [Compound 87]

IC50 [1]: 398 nM
Compound: CCOC(=O)Cn1c2ccccc2n2c(=O)c(CCN3CCC(C4c5ccccc5CCn5c4nc4ccccc45)CC3Cc3ccccc3)c(C)nc12 (stereo not drawn) [Compound 32]
Decision (sequential statistical evaluation) [2, 4]: active
Delta %: average change of the relative ICP from baseline over the treatment period [2, 4]: −13.9%

Compound: CC(C1=C(CCN(C)C)Cc2ccccc21)c1ccccn1 (stereo not drawn) [Dimethindene, reference compound]
Effect on ICP [2]: −

Compound: Cyclodextrine
Effect on ICP [2]: −

Compound: Cc1nc2n(C)c3ccccc3n2c(=O)c1CCN1CCC(C2c3ccccc3CCn3c2nc2ccccc23)CC1Cc1ccccc1 (single isomer, unassigned) [Compound 44]
Decision (sequential statistical evaluation) [2, 4]: active
Delta %: average change of the relative ICP from baseline over the treatment period [2, 4]: −14.8%

IC50 [1]: 100 nM
Compound: Cc1nc2ccccn2c(=O)c1CCN1CCC(C2c3ccccc3CCn3c2nc2ccccc23)C(C)C1 (single isomer, unassigned) [Compound 94]

Compound: CN1CCC(OC(c2ccccc2)c2ccccc2)CC1 [Diphenylpyraline, reference compound]
Effect on ICP [2]: −

IC50 [1]: 316 nM
Compound: Cc1nc2n(C)c3ccccc3n2c(=O)c1CCN1CCC(C2c3ccccc3CCn3c2nc2ccccc23)CC1Cc1ccccc1 (racemic) [Compound 15]
Decision (sequential statistical evaluation) [2, 4]: active
Delta %: average change of the relative ICP from baseline over the treatment period [2, 4]: −23.3%

IC50 [1]: 316 nM
Compound: Cc1nc2n(C)c3ccccc3n2c(=O)c1CCN1CCC(C2c3ccccc3CCn3c2nc2ccccc23)CC1Cc1ccccc1 (stereo not drawn) [Compound 13]

IC50 [1]: 316 nM
Compound: CCn1c2ccccc2n2c(=O)c(CCN3CCC(C4c5ccccc5CCn5c4nc4ccccc45)CC3Cc3ccccc3)c(C)nc12 (stereo not drawn) [Compound 12]

IC50 [1]: 126 nM
Compound: Cc1nc2n(C)c3ccccc3n2c(=O)c1CCN1CCC(C2c3ccccc3CCn3c2nc2ccccc23)CC1Cc1ccccc1 (single isomer, unassigned) [Compound 46]

IC50 [1]: 316 nM
Compound: CCOC(=O)Cn1c2ccccc2n2c(=O)c(CCN3CCC(C4c5ccccc5CCn5c4nc4ccccc45)CC3Cc3ccccc3)c(C)nc12 (stereo not drawn) [Compound 54]

Compound: Cc1nc[nH]c1CSCCN=C(N)NCCCc1cnc[nH]1 [impromidine]
effects of H2-agonists (ICP, blood pressure) [3]: No effects were observed
effects of H2-agonists on blood pressure and ICP, high dose [3]: blood pressure and ICP were observed to drop, but recovered after the treatment

IC50 [1]: 631 nM
Compound: Cc1cncc(Cn2c3ccccc3n3c(=O)c(CCN4CCC(C5c6ccccc6CCn6c5nc5ccccc56)CC4Cc4ccccc4)c(C)nc23)n1 (stereo not drawn) [Compound 27]

Compound: CC(CN(C)C)CN1c2ccccc2Sc2ccccc21 (stereo not drawn) [Alimemazine, reference compound]
Effect on ICP [2]: −

Compound: CN1CCC(=C2c3ccccc3CC(=O)c3sccc32)CC1 [Ketotifen, reference compound]
Effect on blood pressure [2]: 0
effect on the lowering of the blood pressure [2]: no or little effect

IC50 [1]: 25.1 nM
Compound: Cc1nc2n(C)c3ccccc3n2c(=O)c1CCN1CCC(C2c3ccccc3CCn3c2nc2ccccc23)CC1 (stereo not drawn) [Compound 14]

Compound: CN1CCN(C(c2ccccc2)c2ccc(Cl)cc2)CC1 (stereo not drawn) [Chlorcyclizine, reference compound]
Effect on ICP [2]: −
Effect on blood pressure [2]: 0
effect on the lowering of the blood pressure [2]: no or little effect

Compound: O=c1[nH]c2ccccc2n1CCCN1CCN(C(c2ccccc2)c2ccccc2)CC1 [Oxatomide, reference compound]
Effect on ICP [2]: −
Effect on blood pressure [2]: −

From patent publication US7732437B2, “Use of anti-histaminics for acute reduction of elevated intracranial pressure” (Janssen Pharmaceutica, NV., priority 2001, dated 2010)
